From paper PMC7522982, “PKIS deep dive yields a chemical starting point for dark kinases and a cell active BRSK2 inhibitor” (Scientific Reports, 2020)

Columns and labels:
PRKAA2 = biological target: T1, PRKAA2 (Homo sapiens, UniProt P54646); assay: DiscoverX scanMAX competition binding assay; details: read-out: % inhibition in the DiscoverX scanMAX panel at 1 μM
T1 construct: purchased Eurofins DiscoverX Corporation
Description: (§1) Based on its narrow profile when tested in the combined Nanosyn and TSA panels, GW296115 was included in the recently released Kinase Chemogenomic Set (KCGS)[15]. All of the data presented in the Introduction section was collected prior to the inclusion of GW296115 in KCGS and everything that follows has been subsequently generated. Since its inclusion in PKIS and more recently KCGS, we have carried out a broader round of screening at DiscoverX. This profiling data has not been previously released and is reported here for the first time. GW296115 was profiled against 403 wild type human kinases at 1 μM using the DiscoverX scanMAX screening platform, which employs an active site-directed competition binding assay to quantitatively measure interactions between test compounds and kinases, [16]. GW296115 inhibited 25 kinases > 90% at 1 μM, resulting in a selectivity index (S10) of 0.062 at 1 μM (Table S2, Fig. 1C)[17].
To ascertain selectivity of GW296115 and validate our DiscoverX screening results using an orthogonal assay format, we chose to utilize Eurofins enzymatic kinase assays in dose–response at the Km of ATP.
(§2) The scanMAX assays were performed at Eurofins DiscoverX Corporation as previously described.

GAK = tested on: GAK; design: method as in earlier work; details: cited from earlier work
STK33 = STK33 (Homo sapiens, UniProt Q9BYT3); design: purchased Eurofins; method as in earlier work; details: cited from earlier work
PIM2 [1] = biological target: T2, PIM2 (Homo sapiens, UniProt Q9P1W9); design: purchased Eurofins; method as in earlier work; details: cited from earlier work
T2 sequence (Q9P1W9 whole entry): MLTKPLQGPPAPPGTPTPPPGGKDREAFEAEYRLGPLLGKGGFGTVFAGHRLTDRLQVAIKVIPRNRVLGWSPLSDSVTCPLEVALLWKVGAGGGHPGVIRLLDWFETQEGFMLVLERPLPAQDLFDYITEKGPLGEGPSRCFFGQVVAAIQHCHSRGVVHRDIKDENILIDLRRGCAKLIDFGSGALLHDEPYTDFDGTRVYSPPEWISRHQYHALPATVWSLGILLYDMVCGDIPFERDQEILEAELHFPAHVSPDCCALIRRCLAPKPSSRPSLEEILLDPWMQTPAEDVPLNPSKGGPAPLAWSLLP

PIM2 [2] = biological target: T2, PIM2; assay: DiscoverX scanMAX competition binding assay; design: purchased Eurofins DiscoverX Corporation
Description: as §1, §2

ROS1 = ROS1 (Homo sapiens, UniProt P08922); assay: DiscoverX scanMAX competition binding assay; design: purchased Eurofins DiscoverX Corporation
Description: as §1, §2

AURKB = AURKB (Homo sapiens, UniProt Q96GD4); assay: DiscoverX scanMAX competition binding assay; design: purchased Eurofins DiscoverX (scanMAX) / Eurofins enzymatic assays
AURKB, sequence (Q96GD4 whole entry): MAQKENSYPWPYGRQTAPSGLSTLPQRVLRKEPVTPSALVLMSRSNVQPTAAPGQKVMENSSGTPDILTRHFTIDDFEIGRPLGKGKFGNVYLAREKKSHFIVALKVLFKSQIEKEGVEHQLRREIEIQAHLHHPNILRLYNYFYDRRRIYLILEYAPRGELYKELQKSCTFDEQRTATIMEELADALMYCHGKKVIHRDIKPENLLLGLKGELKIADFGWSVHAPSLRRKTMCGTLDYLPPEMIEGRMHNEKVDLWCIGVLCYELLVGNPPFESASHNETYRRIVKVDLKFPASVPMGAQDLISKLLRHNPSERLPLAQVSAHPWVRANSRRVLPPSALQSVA
Description: as §1, §2

CHEK2 = CHEK2 (Homo sapiens, UniProt O96017); assay: DiscoverX scanMAX competition binding assay; design: purchased Eurofins DiscoverX (scanMAX) / Eurofins enzymatic assays
CHEK2, sequence (O96017 whole entry): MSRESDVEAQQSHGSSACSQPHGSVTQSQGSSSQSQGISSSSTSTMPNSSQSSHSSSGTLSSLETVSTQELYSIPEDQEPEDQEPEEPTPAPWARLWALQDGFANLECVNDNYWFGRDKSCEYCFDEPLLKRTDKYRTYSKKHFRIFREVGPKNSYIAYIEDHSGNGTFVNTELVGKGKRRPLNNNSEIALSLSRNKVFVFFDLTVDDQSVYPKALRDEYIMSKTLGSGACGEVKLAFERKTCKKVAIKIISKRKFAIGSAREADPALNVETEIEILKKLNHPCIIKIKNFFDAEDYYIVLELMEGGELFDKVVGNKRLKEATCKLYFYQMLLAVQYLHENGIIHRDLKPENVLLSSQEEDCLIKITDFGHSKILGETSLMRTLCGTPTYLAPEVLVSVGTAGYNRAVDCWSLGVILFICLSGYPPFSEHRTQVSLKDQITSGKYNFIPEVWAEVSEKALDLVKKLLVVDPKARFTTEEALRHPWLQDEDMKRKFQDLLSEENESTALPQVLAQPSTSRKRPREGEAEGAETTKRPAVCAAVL
Description: as §1, §2

DAPK2 = DAPK2 (Homo sapiens, UniProt Q9UIK4); assay: DiscoverX scanMAX competition binding assay; design: purchased Eurofins DiscoverX (scanMAX) / Eurofins enzymatic assays
DAPK2, sequence (Q9UIK4 whole entry): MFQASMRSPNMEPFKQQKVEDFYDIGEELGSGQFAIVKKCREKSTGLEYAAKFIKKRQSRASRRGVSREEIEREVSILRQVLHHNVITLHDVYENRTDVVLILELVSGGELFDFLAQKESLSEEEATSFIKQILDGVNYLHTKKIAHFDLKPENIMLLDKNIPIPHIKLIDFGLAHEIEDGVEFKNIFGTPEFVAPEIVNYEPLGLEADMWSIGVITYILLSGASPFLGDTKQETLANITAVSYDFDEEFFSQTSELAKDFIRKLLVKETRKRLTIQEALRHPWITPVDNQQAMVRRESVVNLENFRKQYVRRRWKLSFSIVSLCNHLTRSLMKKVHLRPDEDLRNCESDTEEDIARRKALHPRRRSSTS
Description: as §1, §2

DAPK3/ZIPK = DAPK3/ZIPK (Homo sapiens, UniProt O43293); assay: DiscoverX scanMAX competition binding assay; design: purchased Eurofins DiscoverX (scanMAX) / Eurofins enzymatic assays
DAPK3/ZIPK, sequence (O43293 whole entry): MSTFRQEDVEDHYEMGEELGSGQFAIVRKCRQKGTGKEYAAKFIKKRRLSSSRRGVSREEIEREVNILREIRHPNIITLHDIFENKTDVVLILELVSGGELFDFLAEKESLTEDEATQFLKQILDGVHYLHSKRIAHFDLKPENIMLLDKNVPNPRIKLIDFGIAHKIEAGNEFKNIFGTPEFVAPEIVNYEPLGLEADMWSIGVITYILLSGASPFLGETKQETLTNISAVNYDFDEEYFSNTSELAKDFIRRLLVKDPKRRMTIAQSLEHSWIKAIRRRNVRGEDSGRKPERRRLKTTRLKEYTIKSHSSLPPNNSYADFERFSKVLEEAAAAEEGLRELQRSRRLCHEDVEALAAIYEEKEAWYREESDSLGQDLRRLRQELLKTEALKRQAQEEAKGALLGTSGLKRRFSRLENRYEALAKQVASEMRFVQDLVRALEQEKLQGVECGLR
Description: as §1, §2

FLT3 = FLT3 (Homo sapiens, UniProt P36888); assay: DiscoverX scanMAX competition binding assay; design: purchased Eurofins DiscoverX (scanMAX) / Eurofins enzymatic assays
Description: as §1, §2

MINK1/MINK = MINK1/MINK (Homo sapiens, UniProt Q8N4C8); assay: DiscoverX scanMAX competition binding assay; design: purchased Eurofins DiscoverX (scanMAX) / Eurofins enzymatic assays
Description: as §1, §2

PDGFRB = PDGFRB (Homo sapiens, UniProt P09619); assay: DiscoverX scanMAX competition binding assay; design: purchased Eurofins DiscoverX (scanMAX) / Eurofins enzymatic assays
PDGFRB, sequence (P09619 33-1106): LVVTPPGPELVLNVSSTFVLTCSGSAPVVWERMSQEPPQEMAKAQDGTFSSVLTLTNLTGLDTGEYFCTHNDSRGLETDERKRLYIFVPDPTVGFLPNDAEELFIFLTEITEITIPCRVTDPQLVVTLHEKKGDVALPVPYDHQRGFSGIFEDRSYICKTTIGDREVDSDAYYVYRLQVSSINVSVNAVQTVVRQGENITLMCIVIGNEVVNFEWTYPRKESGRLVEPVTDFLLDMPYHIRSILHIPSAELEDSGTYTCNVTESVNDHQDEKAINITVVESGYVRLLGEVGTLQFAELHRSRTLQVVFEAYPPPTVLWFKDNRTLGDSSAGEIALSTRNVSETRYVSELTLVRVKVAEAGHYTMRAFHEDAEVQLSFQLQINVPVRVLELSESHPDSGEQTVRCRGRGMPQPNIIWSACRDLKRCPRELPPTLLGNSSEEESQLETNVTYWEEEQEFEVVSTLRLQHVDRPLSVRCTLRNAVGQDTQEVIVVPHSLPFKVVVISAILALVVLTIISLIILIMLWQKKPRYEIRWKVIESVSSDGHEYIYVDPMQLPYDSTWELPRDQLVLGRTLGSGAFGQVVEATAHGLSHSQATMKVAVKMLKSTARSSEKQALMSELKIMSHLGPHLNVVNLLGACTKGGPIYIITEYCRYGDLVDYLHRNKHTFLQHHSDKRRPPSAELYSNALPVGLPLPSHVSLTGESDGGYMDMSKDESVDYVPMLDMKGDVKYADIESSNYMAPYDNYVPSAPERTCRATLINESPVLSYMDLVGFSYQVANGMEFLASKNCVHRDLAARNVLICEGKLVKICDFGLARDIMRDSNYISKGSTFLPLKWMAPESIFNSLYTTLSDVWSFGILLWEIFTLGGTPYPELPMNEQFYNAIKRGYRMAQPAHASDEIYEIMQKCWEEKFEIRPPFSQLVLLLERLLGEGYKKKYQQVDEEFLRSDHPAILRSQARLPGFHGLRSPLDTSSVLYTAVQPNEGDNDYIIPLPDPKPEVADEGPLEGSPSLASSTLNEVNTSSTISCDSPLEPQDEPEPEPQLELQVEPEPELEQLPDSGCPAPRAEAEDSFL
Description: as §1, §2

PIM3 [3] = biological target: T3, PIM3 (Homo sapiens, UniProt Q86V86); assay: DiscoverX scanMAX competition binding assay; design: purchased Eurofins DiscoverX (scanMAX) / Eurofins enzymatic assays
Description: as §1, §2

PRKG2/PKG2 = PRKG2/PKG2 (Homo sapiens, UniProt Q13237); assay: DiscoverX scanMAX competition binding assay; design: purchased Eurofins DiscoverX (scanMAX) / Eurofins enzymatic assays
Description: as §1, §2

RPS6KA6/RSK4 = RPS6KA6/RSK4 (Homo sapiens, UniProt Q9UK32); assay: DiscoverX scanMAX competition binding assay; design: purchased Eurofins DiscoverX (scanMAX) / Eurofins enzymatic assays
Description: as §1, §2

SGK1/SGK = SGK1/SGK (Homo sapiens, UniProt O00141); assay: DiscoverX scanMAX competition binding assay; design: purchased Eurofins DiscoverX (scanMAX) / Eurofins enzymatic assays
SGK1/SGK, sequence (O00141 whole entry): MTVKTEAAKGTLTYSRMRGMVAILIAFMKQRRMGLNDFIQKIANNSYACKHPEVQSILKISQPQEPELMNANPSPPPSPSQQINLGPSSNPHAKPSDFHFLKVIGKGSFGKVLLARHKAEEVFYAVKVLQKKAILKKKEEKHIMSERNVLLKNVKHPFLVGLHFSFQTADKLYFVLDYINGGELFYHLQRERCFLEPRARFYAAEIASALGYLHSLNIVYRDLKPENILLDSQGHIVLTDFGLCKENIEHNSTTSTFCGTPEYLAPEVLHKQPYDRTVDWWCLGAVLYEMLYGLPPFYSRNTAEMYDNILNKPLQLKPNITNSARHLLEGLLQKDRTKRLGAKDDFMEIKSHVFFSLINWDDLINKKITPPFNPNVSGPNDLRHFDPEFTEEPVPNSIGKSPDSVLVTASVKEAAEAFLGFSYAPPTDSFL
Description: as §1, §2

STK17A/DRAK1 = STK17A/DRAK1 (Homo sapiens, UniProt Q9UEE5); assay: DiscoverX scanMAX competition binding assay; design: purchased Eurofins DiscoverX (scanMAX) / Eurofins enzymatic assays
STK17A/DRAK1, sequence (Q9UEE5 whole entry): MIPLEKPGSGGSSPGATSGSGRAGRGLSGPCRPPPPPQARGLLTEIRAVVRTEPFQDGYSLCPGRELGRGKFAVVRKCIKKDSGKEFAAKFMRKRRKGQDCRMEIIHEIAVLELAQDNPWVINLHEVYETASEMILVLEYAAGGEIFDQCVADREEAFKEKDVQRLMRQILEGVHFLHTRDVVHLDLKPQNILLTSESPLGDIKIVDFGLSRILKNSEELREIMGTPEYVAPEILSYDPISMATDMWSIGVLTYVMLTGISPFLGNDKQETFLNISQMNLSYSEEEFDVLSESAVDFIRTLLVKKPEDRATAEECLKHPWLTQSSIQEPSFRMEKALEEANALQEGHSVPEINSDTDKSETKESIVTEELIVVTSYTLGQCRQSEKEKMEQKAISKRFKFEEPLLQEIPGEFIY
Description: as §1, §2

STK17B/DRAK2 = biological target: T4, STK17B/DRAK2 (Homo sapiens, UniProt O94768); assay: DiscoverX scanMAX competition binding assay; design: purchased Eurofins DiscoverX (scanMAX) / Eurofins enzymatic assays
T4 sequence (O94768 1-372): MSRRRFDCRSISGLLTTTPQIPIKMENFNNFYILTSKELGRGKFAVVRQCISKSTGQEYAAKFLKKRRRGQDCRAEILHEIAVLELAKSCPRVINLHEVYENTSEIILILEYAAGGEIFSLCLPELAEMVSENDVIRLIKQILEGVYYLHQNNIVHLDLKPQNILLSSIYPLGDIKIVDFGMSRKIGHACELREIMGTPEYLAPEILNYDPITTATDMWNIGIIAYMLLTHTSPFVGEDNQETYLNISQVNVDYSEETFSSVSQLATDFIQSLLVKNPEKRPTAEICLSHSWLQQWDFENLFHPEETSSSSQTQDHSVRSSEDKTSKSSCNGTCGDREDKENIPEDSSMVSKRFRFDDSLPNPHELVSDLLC
Description: as §1, §2

TNIK = TNIK (Homo sapiens, UniProt Q9UKE5); assay: DiscoverX scanMAX competition binding assay; design: purchased Eurofins DiscoverX (scanMAX) / Eurofins enzymatic assays
Description: as §1, §2

PIM3 [4] = biological target: T3, PIM3; design: purchased Eurofins DiscoverX (scanMAX) / Eurofins enzymatic assays; method as in earlier work; details: cited from earlier work

T1 sequence (P54646 whole entry): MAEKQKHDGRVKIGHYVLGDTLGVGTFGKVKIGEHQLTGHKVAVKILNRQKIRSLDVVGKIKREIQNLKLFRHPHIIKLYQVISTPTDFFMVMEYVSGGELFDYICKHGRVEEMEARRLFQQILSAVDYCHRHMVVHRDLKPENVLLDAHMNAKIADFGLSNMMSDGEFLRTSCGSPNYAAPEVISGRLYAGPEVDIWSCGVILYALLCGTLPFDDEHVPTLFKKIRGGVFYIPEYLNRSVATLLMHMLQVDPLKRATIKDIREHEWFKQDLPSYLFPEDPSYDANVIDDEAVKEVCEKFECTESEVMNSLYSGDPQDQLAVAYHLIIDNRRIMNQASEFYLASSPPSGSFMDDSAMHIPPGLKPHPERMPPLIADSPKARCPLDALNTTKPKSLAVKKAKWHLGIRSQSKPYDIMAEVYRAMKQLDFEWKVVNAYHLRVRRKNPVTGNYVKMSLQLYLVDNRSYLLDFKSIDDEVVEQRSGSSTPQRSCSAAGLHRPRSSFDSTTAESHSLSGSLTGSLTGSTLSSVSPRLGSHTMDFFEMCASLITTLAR

In the case of COc1ccc2[nH]c3c4[nH]c5ccc(OC)cc5c4c4c(c3c2c1)C(=O)NC4=O [GW296115], the inhibition at 1 µM (PRKAA2) is listed as 20%, the “TSA ΔTm at 10 μM (°C)” value (GAK) is listed as 8.4 °C and the “TSA ΔTm at 10 μM (°C)” value (STK33) is listed as 9.8 °C. The “TSA ΔTm at 10 μM (°C)” value (PIM2 [1]) was 9.8 °C, the inhibition at 1 µM (PIM2 [2]) was 83% and the inhibition at 1 µM (ROS1) was 76%. It also gave an inhibition at 1 µM (AURKB) of 90%, an inhibition at 1 µM (CHEK2) of 92.5% and an inhibition at 1 µM (DAPK2) of 96.7%. For the same molecule, the inhibition at 1 µM (DAPK3/ZIPK) was 96.9%, the inhibition at 1 µM (FLT3) was 91.5% and the inhibition at 1 µM (MINK1/MINK) was 96%. For the same molecule, the inhibition at 1 µM (PDGFRB) was 99.8%, the inhibition at 1 µM (PIM3 [3]) was 94.4% and the inhibition at 1 µM (PRKG2/PKG2) was 98.8%. For the same molecule, the inhibition at 1 µM (RPS6KA6/RSK4) was 94.7%, the inhibition at 1 µM (SGK1/SGK) was 91.2% and the inhibition at 1 µM (STK17A/DRAK1) was 99.6%. For the same molecule, the inhibition at 1 µM (STK17B/DRAK2) was 100%, the inhibition at 1 µM (TNIK) was 97.7% and the “Nanosyn % Inhibition at 1 μM” value (PIM3 [4]) was 83%.
